Measured values reported in US20230312587A1, “PTERIDINONE COMPOUNDS AND USES THEREOF” (Vertex Pharmaceutical Incorporated, priority 2018, published 2023).
Where two headings read alike, the source gives them in different places.

How the values were obtained:
[1] = system: β-catenin-TCF-mediated reporter transcription activity in Colo 205 cells; experiment: Colo 205 reporter assay (TCF/LEF luciferase); format: cell-based; settings: five hours after addition of compound
How it was run: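 Luciferase signal from a TCF/LEF-driven reporter, stably integrated in Colo 205 colon cancer cells, was measured 5 h after compound addition.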

Colo-205 cells = experiment: Calcium flux assay (FLIPR Calcium 5); format: cell-based; settings: FLIPR Calcium 5, measured over 36 minutes
Experimental: Compounds described herein induced ER stress by causing intracellular calcium flux. Calcium flux was measured in Colo-205 cells using the FLTPR® Calcium 5 Assay Kit according to manufacter's protocol (Molecular Devices, Cat. #R8186) on a FLIPR3 system (Molecular Devices). Calcium flux is measured over 36 minutes. The Colo-205 calcium flux assay data are summarized in Table 47: A<0.6 μM; 0.6 μM≤B<2.0 μM; 2.0 μM≤C<10.0 μM; D≥10.0 μM.

[2] = Homo sapiens, COLO 205, 5 h, Colo 205 TCF/LEF luciferase reporter, read-out: TCF reporter Colo205 IC50
[3] = Homo sapiens, COLO 205, 5 h, Colo 205 cells with stably transfected TCF/LEF luciferase reporter, read-out: TCF reporter Colo205
[4] = Colo 205 TCF/LEF luciferase reporter, read-out: TCF reporter Colo205 IC50

Compound | IC50 [1, 2] [nM] | EC50 (Colo-205 cells; Homo sapiens, COLO 205, 0.6 h) [nM] | IC50 [1, 3] [nM] | IC50 [1, 4] [nM] | EC50 (Colo-205 cells) [nM]
Cc1nc(C(F)(F)F)ccc1Cn1cc(CNc2nc(C)c3c(n2)N(C)[C@@H](C)C(=O)N3)cn1 [Compound 188, (S)-4,7,8-trimethyl-2-(((1-((2-methyl-6-(trifluoromethyl)pyridin-3-yl)methyl)-1H-pyrazol-4-yl)methyl)amino)-7,8-dihydropteridin-6(5H)-one] | < 300 | 600 to 2000 |  |  | 
Cc1nc(NCc2cnn(Cc3ccc(C(F)(F)F)nc3)c2)nc2c1NC(=O)[C@H](C1CC1)N2C [Compound 386, (7S)-7-Cyclopropyl-4,8-dimethyl-2-(((1-((6-(trifluoromethyl)pyridin-3-yl)methyl)-1H-pyrazol-4-yl)methyl)amino)-7,8-dihydropteridin-6(5H)-one] | < 300 | 600 to 2000 |  |  | 
Cc1nc(NCc2cnn(Cc3ccc(C(F)(F)F)nc3C(C)C)c2)nc2c1NC(=O)[C@H](C)N2C [Compound 388, (7S)-2-(((1-((2-isopropyl-6-(trifluoromethyl)pyridin-3-yl)methyl)-1H-pyrazol-4-yl)methyl)amino)-4,7,8-trimethyl-7,8-dihydropteridin-6(5H)-one] | < 300 | < 600 |  |  | 
Cc1nc(NCc2cnn(Cc3ccc(F)nc3)c2)nc2c1NC(=O)[C@H](C(C)C)N2C [Compound 384, (7S)-2-(((1-((6-fluoropyridin-3-yl)methyl)-1H-pyrazol-4-yl)methyl)amino)-7-isopropyl-4,8-dimethyl-7,8-dihydropteridin-6(5H)-one] | < 300 | 600 to 2000 |  |  | 
Cc1nc(N[C@H]2C[C@H](Oc3ccc(F)cc3)C2)nc2c1N(C)C(=O)[C@H](C)N2C [Compound 250, (7S)-2-((trans-3-(4-fluorophenoxy)cyclobutyl)amino)-4,5,7,8-tetramethyl-7,8-dihydropteridin-6(5H)-one] | 300 to 1000 | 600 to 2000 |  |  | 
Cc1nc(NCc2cnn(Cc3cc(F)c(F)c(F)c3)c2)nc2c1NC(=O)[C@H](C)N2C [Compound 122, (7S)-4,7,8-trimethyl-2-(((1-(3,4,5-trifluorobenzyl)-1H-pyrazol-4-yl)methyl)amino)-7,8-dihydropteridin-6(5H)-one] | < 300 | < 600 |  |  | 
COc1c(F)cc(Cn2cc(CNc3nc(C)c4c(n3)N(C)[C@@H](C)C(=O)N4)cn2)cc1F [Compound 46, (7S)-2-(((1-(3,5-difluoro-4-methoxybenzyl)-1H-pyrazol-4-yl)methyl)amino)-4,7,8-trimethyl-7,8-dihydropteridin-6(5H)-one] | < 300 | < 600 |  |  | 
Cc1cc(F)ncc1Cn1cc(CNc2nc(C)c3c(n2)N(C)[C@@H](C)C(=O)N3)cn1 [Compound 94, (7S)-2-(((1-((6-fluoro-4-methylpyridin-3-yl)methyl)-1H-pyrazol-4-yl)methyl)amino)-4,7,8-trimethyl-7,8-dihydropteridin-6(5H)-one] | < 300 | 600 to 2000 |  |  | 
COc1cc(F)ccc1Cn1cc(CNc2nc(C)c3c(n2)N(C)[C@@H](C)C(=O)N3)cn1 [Compound 83, (7S)-2-(((1-(4-fluoro-2-methoxybenzyl)-1H-pyrazol-4-yl)methyl)amino)-4,7,8-trimethyl-7,8-dihydropteridin-6(5H)-one] | < 300 | < 600 |  |  | 
Cc1nc(NCc2cnn(Cc3cc(C(F)(F)F)nn3C)c2)nc2c1NC(=O)[C@H](C(C)C)N2C [Compound 397, (7S)-7-Isopropyl-4,8-dimethyl-2-(((1-((1-methyl-3-(trifluoromethyl)-1H-pyrazol-5-yl)methyl)-1H-pyrazol-4-yl)methyl)amino)-7,8-dihydropteridin-6(5H)-one] |  | 600 to 2000 | < 300 |  | 
CCN1c2nc(NCc3cnn(Cc4ccc(C(F)(F)F)nc4)c3)nc(C)c2NC(=O)[C@@H]1C [Compound 395, (7S)-8-Ethyl-4,7-dimethyl-2-(((1-((6-(trifluoromethyl)pyridin-3-yl)methyl)-1H-pyrazol-4-yl)methyl)amino)-7,8-dihydropteridin-6(5H)-one] | < 300 | 600 to 2000 |  |  | 
Cc1nc(N[C@@H]2CC[C@@H](Oc3cc(F)c(F)c(F)c3)C2)nc2c1N(C)C(=O)[C@H](C)N2C [Compound 272, (S)-4,5,7,8-tetramethyl-2-(((1R,3R)-3-(3,4,5-trifluorophenoxy)cyclopentyl)amino)-7,8-dihydropteridin-6(5H)-one] | < 300 | 600 to 2000 |  |  | 
(7S)-4,7,8-trimethyl-2-((trans-3-(3,4-difluorophenoxy)cyclobutyl)amino)-7,8-dihydropteridin-6(5H)-one [Compound 251] |  |  |  | 300 to 1000 | 600 to 2000
Cc1nc(NCc2cnn(Cc3cccc(C(C)C)c3)c2)nc2c1NC(=O)[C@H](C)N2C [Compound 80, (7S)-2-(((1-(3-isopropylbenzyl)-1H-pyrazol-4-yl)methyl)amino)-4,7,8-trimethyl-7,8-dihydropteridin-6(5H)-one] | < 300 | 600 to 2000 |  |  | 
Cc1nc(N[C@H]2C[C@@H](COc3cc(F)c(F)c(F)c3)C2)nc2c1NC(=O)[C@H](C)N2C [Compound 257, (7S)-4,7,8-Trimethyl-2-((cis-3-((3,4,5-trifluorophenoxy)methyl)cyclobutyl)-amino)-7,8-dihydropteridin-6(5H)-one] | < 300 | 600 to 2000 |  |  | 
Cc1ccc(Cn2cc(CNc3nc(C)c4c(n3)N(C)[C@@H](C)C(=O)N4)cn2)cn1 [Compound 173, (7S)-4,7,8-trimethyl-2-(((1-((6-methylpyridin-3-yl)methyl)-1H-pyrazol-4-yl)methyl)amino)-7,8-dihydropteridin-6(5H)-one] | 1000 to 5000 | 2000 to 10000 |  |  | 
Cc1nc(N[C@H]2C[C@H](Oc3ccnc(C(F)(F)F)c3)C2)nc2c1NC(=O)[C@H](C)N2C [Compound 335, (7S)-4,7,8-trimethyl-2-((trans-3-((2-(trifluoromethyl)pyridin-4-yl)oxy)cyclobutyl)amino)-7,8-dihydropteridin-6(5H)-one] | < 300 | 600 to 2000 |  |  | 
Cc1nc(N[C@H]2CC[C@H](n3ccc(C(F)(F)F)n3)C2)nc2c1NC(=O)[C@H](C)N2C (single isomer, unassigned) [Compound 310] | 1000 to 5000 | 2000 to 10000 |  |  | 
Cc1nc(NCc2cnn(Cc3ccc(C(F)(F)F)nc3)c2)nc2c1NC(=O)[C@H](C(C)C)N2C [Compound 383, (7S)-7-isopropyl-4,8-dimethyl-2-(((1-((6-(trifluoromethyl)pyridin-3-yl)methyl)-1H-pyrazol-4-yl)methyl)amino)-7,8-dihydropteridin-6(5H)-one] | < 300 | 600 to 2000 |  |  | 
CC(=O)N(Cc1cnn(Cc2ccc(C(F)(F)F)nc2)c1)c1nc(C)c2c(n1)N(C)[C@@H](C)C(=O)N2 [Compound 405, (7S)-N-((1-((6-(trifluoromethyl)pyridin-3-yl)methyl)-1H-pyrazol-4-yl)methyl)-N-(4,7,8-trimethyl-6-oxo-5,6,7,8-tetrahydropteridin-2-yl)acetamide] |  | ≥ 10000 | ≥ 5000 |  | 
Cc1nc(NCc2cnn(Cc3ccnc(C(F)(F)F)c3)c2)nc2c1NC(=O)[C@H](C)N2C [Compound 207, (7S)-4,7,8-trimethyl-2-(((1-((2-(trifluoromethyl)pyridin-4-yl)methyl)-1H-pyrazol-4-yl)methyl)amino)-7,8-dihydropteridin-6(5H)-one] | < 300 | 600 to 2000 |  |  | 
Cc1nc(NCc2cnn([C@H]3CCN(C4CCC(F)(F)CC4)C3)c2)nc2c1NC(=O)[C@H](C)N2C [Compound 142, (7S)-2-(((1-((S)-1-(4,4-difluorocyclohexyl)pyrrolidin-3-yl)-1H-pyrazol-4-yl)methyl)amino)-4,7,8-trimethyl-7,8-dihydropteridin-6(5H)-one] | 300 to 1000 | 600 to 2000 |  |  | 
Cc1nc(N[C@H]2C[C@H](Oc3ccc(F)nc3)C2)nc2c1NC(=O)[C@H](C)N2C [Compound 357, (7S)-2-((trans-3-((6-fluoropyridin-3-yl)oxy)cyclobutyl)amino)-4,7,8-trimethyl-7,8-dihydropteridin-6(5H)-one] | 1000 to 5000 | 600 to 2000 |  |  | 
Cc1nc(NCc2cnn([C@@H]3CCN(c4ccc(F)cc4)C3)c2)nc2c1NC(=O)[C@H](C)N2C [Compound 170, (7S)-2-(((1-((R)-1-(4-fluorophenyl)pyrrolidin-3-yl)-1H-pyrazol-4-yl)methyl)amino)-4,7,8-trimethyl-7,8-dihydropteridin-6(5H)-one] | < 300 | < 600 |  |  | 
Cc1nc(N[C@H]2C[C@H](Oc3cc(F)c(F)c(F)c3)C2)nc2c1NC(=O)[C@H](C)N2C [Compound 246, (7S)-4,7,8-trimethyl-2-((trans-3-(3,4,5-trifluorophenoxy)cyclobutyl)amino)-7,8-dihydropteridin-6(5H)-one] | < 300 | ≥ 10000 |  |  | 
Cc1nc(NCc2cnn(Cc3cc(C(F)(F)F)nn3C)c2)nc2c1NC(=O)[C@H](C1CC1)N2C [Compound 396, (7S)-7-Cyclopropyl-4,8-dimethyl-2-(((1-((1-methyl-3-(trifluoromethyl)-1H-pyrazol-5-yl)methyl)-1H-pyrazol-4-yl)methyl)amino)-7,8-dihydropteridin-6(5H)-one] | < 300 | 600 to 2000 |  |  | 
Cc1nc(N[C@@H]2CC[C@@H](n3ccc(C(F)(F)F)n3)C2)nc2c1NC(=O)[C@H](C)N2C (single isomer, unassigned) [Compound 311] | < 300 | < 600 |  |  | 
Cc1nc(N[C@H]2CC[C@H](Oc3ccc(C(F)(F)F)nc3)C2)nc2c1NC(=O)[C@H](C)N2C (single isomer, unassigned) [Compound 377] |  |  |  | < 300 | < 600
